This test has as its system SMN protein in SMA patient fibroblasts (GM03813). Put plainly: SMN cytoblot assay (SMN protein levels in SMA patient fibroblasts). Type of test: cell-based, human. An excerpt: One method for monitoring SMN protein levels in cells is through use of a cytoblot assay, in which cells are fixed and probed with an antibody against a target protein of interest. We have used a cytoblot assay to determine the concentration of SMN protein in SMA patient fibroblasts, and have identified small molecules that increase SMN protein concentration.
Using the cytoblot assay, we can clearly distinguish SMN protein levels in patient (GM03813) versus carrier fibroblast cells (GM03814), as shown in the FIGS. 1A and 1B.
• 1. Plate 50 μl per well of 300,000 cells/ml (15,000 cells per well) into Nunc white 384-well opaque-bottomed plates. • 2. Incubate plates at 37° C., 5% CO2 overnight. Day 2 • 1. Aspirate media from wells using Tecan plate washer. • 2. Fix cells by adding 20 μl/well of cold methanol (kept in −20° C. freezer). • 3. Incubate plates in 4° C. refrigerator for 10 minutes. • 4. Aspirate methanol using Tecan plate washer. • 5. Add 50 μl/well of primary Ab solution, (BD anti-SMN Ab diluted to 125 ng/ml in 10% fetal goat serum PBST), using multi-drop. • 6. Seal plates and incubate overnight at room temperature. Day 3 • 1. After 16-20 hrs incubation, wash plates with PBST 2× using Tecan plate washer. • 2. Add 50 μl of secondary Ab solution, (Santa Cruz goat anti-Mouse-HRP diluted to 67 ng/ml in 10% fetal goat serum PBST). • 3. Seal plates and incubate 2 hrs at room temperature. • 4. Wash plates with PBST 2× using Tecan plate washer. • 5. Add 50 μl/well 10% fetal goat serum PBST. • 6. Incubate in 4° C. refrigerator for 10 minutes. • 7. Aspirate plates using plate washer and add ECL luminescence solution, 20 μl/well. • 8. Measure luminescence on plate reader. Automated Scoring
We scored each compound based on the maximum signal-to-noise ratio (SNR) found among its dose curves. These scores are based on edge-corrected SMN data, using only plates that passed quality control. The untreated level on each plate was found by taking the median of the untreated wells, and for each treated well we calculated a log(T/U) ratio. Each curve was generated in triplicate on each plate, so each point on a compound's dose curve was obtained by determining the median for the replicate points. Each ratio thus has an error estimate from the scatter between the triplicate data points (1.5 times the median absolute deviation from the median). For each dose curve, we calculated the SNR for each data point log(T/U)/error, and chose the maximum point as our indicator of SMN induction activity. Since this is a signal-to-noise score, scores much greater than one indicate significant activity, assuming normal statistics. We decided to use a cutoff signal-to-noise ratio of 6. This selection represents a considerable enrichment towards visually-selected compounds. We identified 100 out of 2000 compounds producing scores >6. This included 13 of the 28 visual selections.

[1] abbreviates: maximum signal-to-noise ratio log(T/U)/error among a compound's dose curves, SMN cytoblot, cutoff 6, column Scoring says Automated or Visual selection.

This note sets out measurements from patent US20060286167A1, “Compositions and methods for the treatment of neurodegenerative diseases” (priority 2005, published 2006).

Where a name gives a salt, the structure may show the parent alone. Read-outs that look alike come from different tables or passages of the source.

In the case of `O=C(O)[C@H](O)[C@@H](O)C(=O)O` [L-Tartaric acid], the SNR under setting [1] stood at 6.92. Same read-out and setting: with `C=CCCC(=O)O` [4-Pentenoic acid] the figure was 10.8. On the same count and under the same terms, with `CNCCNS(=O)(=O)c1cccc2cnccc12` [H-8] the figure was 9.52; with `CCCN1C[C@H](CSC)C[C@@H]2c3cccc4[nH]cc(c34)C[C@H]21` [Pergolide Mesylate], 7.69; with `NCC[C@H](O)C(=O)N[C@@H]1C[C@H](N)[C@@H](O[C@H]2O[C@H](CN)[C@@H](O)[C@H](O)[C@H]2O)[C@H](O)[C@H]1O[C@H]1O[C@H](CO)[C@@H](O)[C@H](N)[C@H]1O.O=S(=O)(O)O.O=S(=O)(O)O` [Amikacin Sulfate], 7.7. Same read-out and setting: with `CC(C)CCCC(C)CCCC(C)CCCCC(C)CCCC(C)CCCC(C)C` (stereo not drawn) [Hexamethyltetracosane] the figure was 6.64. In the case of `CNC[C@H](O)c1ccc(O)c(O)c1` [Epinephrine Bitartrate], the SNR under setting [1] is reported as 8.26.

In the case of `CN(CC(=O)O)C(=N)N` [Creatine], under setting [1], the SNR was determined as 8.34.

With `CCc1cc(C(N)=S)ccn1` [Ethionamide], under setting [1], the SNR came to 14.

`CCOC(=O)[C@H](CCc1ccccc1)N[C@@H](C)C(=O)N1CCC[C@H]1C(=O)O` [Enalapril]: under setting [1], the SNR came out at 6.77. Regarding `O=C(OCc1ccccc1)c1ccccc1` [Benzyl Benzoate], the SNR under setting [1] turned out to be 9.42.

For Gentamicin Sulfate, the SNR under setting [1] was 14.9.

As to `CC(CCc1ccc(O)cc1)NCCc1ccc(O)c(O)c1` (stereo not drawn) [Dobutamine Hydrochloride], the SNR under setting [1] came to 6.47. On the same count and under the same terms, the figure for `CCCCCC(Br)C(=O)O` (stereo not drawn) [alpha-Bromohepyanoic acid] is 8.41. On the same count and under the same terms, with `CN[C@@H]1[C@H](O)[C@H](NC)[C@H]2O[C@@]3(O)C(=O)C[C@@H](C)O[C@H]3O[C@@H]2[C@H]1O` [Spectinomycin] the figure was 11.

With Chymopapain, the SNR under setting [1] is recorded as 6.83. Consider `CC(=O)Nc1c(I)cc(I)c(C(=O)O)c1I` [Acetrizoate Sodium], for which the SNR under setting [1] came to 12.8.

Nonoxynol-9: the SNR under setting [1] turned out to be 7. Same read-out and setting: the figure for `CC[N+](CC)(CC)CCOc1cccc(OCC[N+](CC)(CC)CC)c1OCC[N+](CC)(CC)CC` [Gallamine Triethiodide] is 15.4; for `CC[C@@H](C(N)=O)N1CCCC1=O` [Levetiracetam] it is 7.74; for `N=C(N)NC(=O)Cc1c(Cl)cccc1Cl` [Guanfacine Hydrochloride, (N-aminoiminomethyl)-2,6-dichlorobenzeneacetamide] it is 7.24. The same measure, in the same setting: with `CCC(=O)OCC(=O)[C@@]1(OC(=O)CC)[C@@H](C)C[C@H]2[C@@H]3CCC4=CC(=O)C=C[C@]4(C)[C@@]3(Cl)[C@@H](O)C[C@@]21C` [Beclomethasone Dipropionate] the figure was 6.27; with `O=C(N/N=C/c1ccc([N+](=O)[O-])o1)c1ccc(O)cc1` [Nifuroxazide], 6.96. As to `CN(C)CCC(O)(c1ccccc1)c1ccccc1Cl` (stereo not drawn) [Chlophedianol Hydrochloride], the SNR under setting [1] is listed as 7.44. Take `O=C1Nc2ccc(Cl)cc2[C@@](C#CC2CC2)(C(F)(F)F)O1` [Efavirenz]: the SNR under setting [1] amounted to 13.1.

For `CC(C)(C)OC(=O)N1CCCNCC1` [1-Boc-homopiperazine], the SNR under setting [1] was 6.66. On the same count and under the same terms, with `CN(C)[C@@H]1C(O)=C(C(N)=O)C(=O)[C@@]2(O)C(O)=C3C(=O)c4c(O)ccc(Cl)c4[C@@](C)(O)[C@H]3C[C@@H]12` [Chlortetracycline Hydrochloride] the figure was 10.4; with `CC(C)(Oc1ccc(CCNC(=O)c2ccc(Cl)cc2)cc1)C(=O)O` [Bezafibrate], 7.38. Same read-out and setting: with `CC(=O)N1C[C@H](O)C[C@H]1C(=O)O` [Oxaceprol] the figure was 10.6. On to Ferrous Sulfate, for which the SNR is recorded as 7.55. For the compound `CCCCCCCC/C=C\CCCCCCCC(=O)OC` [Methyl Oleate], the SNR under setting [1] worked out at 7.89.

Consider `C=CCSC[C@H](N)C(=O)O` [S-Allyl-L-Cysteine], for which the SNR under setting [1] is recorded as 9.02. Still for that read-out and setting: with `CC1=C(/C=C/C(C)O)C(C)(C)CCC1` (stereo not drawn) [Beta-Ionol] the figure was 10.3; with `CCCCC(CC)COC(=O)/C=C/C(=O)OCC(CC)CCCC` (stereo not drawn) [Bis(2-Ethlyhexyl) Fumarate], 7.33; with `CCCCC/C=C\C/C=C\CCCCCCCC(=O)OC` [Methyl Linoleate], 10.1. In the case of `CC(=O)OCC(=O)[C@H]1CC[C@H]2[C@@H]3CCC4=CC(=O)CC[C@]4(C)[C@H]3CC[C@]12C` [Desoxycorticosterone Acetate], the SNR under setting [1] came out at 7.41. As for `O=S(=O)([O-])[O-].[Mn+2]` [Manganese Sulfate], the SNR stood at 10.3. Turning to `C[C@H]1COc2c(C3(N)CC3)c(F)cc3c(=O)c(C(=O)O)cn1c23` [Pazufloxacin], the SNR under setting [1] is 7.83. On the same count and under the same terms, the figure for `CC1(C)S[C@@H]2[C@H](NC(=O)C(C(=O)O)c3ccccc3)C(=O)N2[C@H]1C(=O)O` (stereo partly drawn) [Carbenicillin Disodium] is 7.99; for `COc1c2occc2c(OC)c2c(=O)cc(C)oc12` [Khellin] it is 6.73. Take `OC[C@@H](O)[C@@H](O[C@@H]1O[C@H](CO)[C@H](O)[C@H](O)[C@H]1O)[C@H](O)[C@@H](O)CO` [Lactitol]: under setting [1], the SNR came out at 15.8. Take `CC(C[N+](C)(C)C)OC(N)=O` (stereo not drawn) [Bethanechol Chloride]: the SNR under setting [1] was determined as 9.26. The same measure, in the same setting: with `CC(C)NCC(O)COc1ccc(CCOCC2CC2)cc1` (stereo not drawn) [Betaxolol Hydrochloride] the figure was 7.21; with `[Cl][Cu][Cl]` [Cupric Chloride], 12.1; with `COC(=O)[C@H]1[C@H]2C[C@@H]3c4[nH]c5cc(OC)ccc5c4CCN3C[C@H]2C[C@@H](OC(=O)/C=C/c2cc(OC)c(OC)c(OC)c2)[C@@H]1OC` [Rescinnamine], 6.3. The same measure, in the same setting: the figure for Neomycin Sulfate is 7.96; for `CC(C)NCC(O)COc1cccc2ccccc12` (stereo not drawn) [Propranolol Hydrochloride] it is 7.38. The same measure, in the same setting: with `O=C(O)c1ccccc1OP(=O)(O)O` [Fosfosal] the figure was 6.77. `NCCc1c[nH]c2ccc(O)cc12` [Serotonin]: the SNR under setting [1] was determined as 6.15. `C[N+]1(CCC(C(N)=O)(c2ccccc2)c2ccccc2)CCCCC1` [Fenpiverinium Bromide]: the SNR under setting [1] came out at 7.49. Same read-out and setting: with `CC(C)=CCCC(C)CC=O` (stereo not drawn) [Citronellal] the figure was 8.6. The compound `C1CNCCN1.O=C(O)CC(O)(CC(=O)O)C(=O)O` [Piperazine Citrate] yielded an SNR of 6.68. Consider `C=N[C@@H](C(=O)N[C@@H]1C(=O)N2[C@@H]1SC(C)(C)[C@@H]2C(=O)O)c1ccccc1` [Metampicillin], for which the SNR under setting [1] worked out at 9.95. `CS(=N)(=O)CC[C@H](N)C(=O)O` (stereo partly drawn) [L-Methionine Sulfoximine] had an SNR of 7.29. For the compound `[Ca+2].[Cl-].[Cl-]` [Calcium Chloride], the SNR is recorded as 7.63. As to `NC[C@@H]1O[C@H](O[C@H]2[C@@H](O)[C@H](O[C@@H]3[C@@H](O)[C@H](N)C[C@H](N)[C@H]3O[C@H]3O[C@H](CO)[C@@H](O)[C@H](O)[C@H]3N)O[C@@H]2CO)[C@H](N)[C@@H](O)[C@@H]1O` [Paromomycin Sulfate], the SNR under setting [1] is given as 11. The same measure, in the same setting: the figure for `COc1ccc(CC(C)=O)cc1OC` [3,4-Dimethoxyphenylacetone] is 7.25.
